Source: publication PMC8359458 (British Journal of Clinical Pharmacology, 2021)
pIC50: −log10 of the molar value. Read-outs that look alike come from different tables or passages of the source.

Legend:
[1] = type: in vivo, human; conditions: for AUC / Cmax: geometric mean (CV%); for Tmax: median (min‐max); for half-life: arithmetic mean (SD)
[2] = tested on: CYP3A; assay: Cocktail DDI study: effect of zanubrutinib on CYP3A probe midazolam; type: in vivo, human
[3] = tested on: CYP3A4; conditions: cited from earlier work
[4] = tested on: CYP2C19; assay: Cocktail DDI study: effect of zanubrutinib on CYP2C19 probe omeprazole; type: in vivo, human
[5] = tested on: BCRP; assay: Cocktail DDI study: effect of zanubrutinib on BCRP probe rosuvastatin; type: in vivo, human; conditions: rosuvastatin with/without zanubrutinib 160 mg b.i.d.
[6] = tested on: P‐glycoprotein (P‐gp); conditions: concentrations up to 10.0 μM; cited from earlier work
[7] = tested on: P‐glycoprotein (P‐gp); assay: In vitro transporter inhibition; type: in vitro ADME; conditions: 160 mg zanubrutinib b.i.d.; FDA cutoff 10
[8] = tested on: CYP2B6; conditions: at 3 and 30 μM, human hepatocytes; cited from earlier work
[9] = tested on: CYP2C9; conditions: human liver microsomes, reversible inhibition; cited from earlier work
[10] = Plasma PK of zanubrutinib alone and with omeprazole 20 mg; type: in vivo; conditions: male, human, oral
[11] = tested on: OATP1B3; conditions: concentrations up to 5.0 μM; cited from earlier work
[12] = tested on: breast cancer resistance protein (BCRP); assay: In vitro transporter inhibition; type: in vitro ADME; conditions: 160 mg zanubrutinib b.i.d.; FDA cutoff 10
[13] = tested on: OAT3; conditions: concentrations up to 5.0 μM; cited from earlier work
[14] = oral, patients with B‐cell malignancies; cited from earlier work
[15] = tested on: organic anion transporter (OAT) 1; conditions: concentrations up to 5.0 μM; cited from earlier work
[16] = cited from earlier work
[17] = tested on: CYP2C19; conditions: human liver microsomes, reversible inhibition; cited from earlier work
[18] = tested on: CYP2C8; conditions: human liver microsomes, reversible inhibition; cited from earlier work
[19] = tested on: OATP1B1; conditions: concentrations up to 5.0 μM; cited from earlier work
[20] = tested on: CYP3A; conditions: at 3 and 30 μM, human hepatocytes; cited from earlier work
[21] = tested on: CYP2C8; conditions: at 3 and 30 μM, human hepatocytes; cited from earlier work
[22] = Safety analyses; type: in vivo, human; conditions: for incidence of TEAEs: 17 subjects
[23] = tested on: CYP2C9; conditions: at 3 and 30 μM, human hepatocytes; cited from earlier work
[24] = tested on: CYP2B6; assay: CYP mRNA induction in human hepatocytes; type: in vitro ADME; conditions: according to FDA guidance, in vitro
[25] = tested on: organic cation transporter (OCT) 2; conditions: concentrations up to 5.0 μM; cited from earlier work
[26] = tested on: breast cancer resistance protein (BCRP); conditions: concentrations up to 5.0 μM; cited from earlier work
[27] = tested on: CYP3A4/5; conditions: cited from earlier work
[28] = tested on: CYP3A4; conditions: co‐administration with rifampicin; cited from earlier work
[29] = male, human, plasma, oral, AUC0‐t, probe drugs + zanubrutinib 160 mg b.i.d.
[30] = male, human, plasma, oral, Cmax, probe drugs + zanubrutinib 160 mg b.i.d.
[31] = midazolam with/without zanubrutinib 160 mg b.i.d.
[32] = male, human, plasma, oral, AUC0‐∞, probe drugs + zanubrutinib 160 mg b.i.d.
[33] = male, human, plasma, oral, AUC0‐∞, probe drugs only
[34] = male, human, plasma, oral, Cmax, probe drugs only
[35] = male, human, plasma, oral, t1/2, probe drugs only
[36] = probe drugs + zanubrutinib 160 mg b.i.d.
[37] = omeprazole with/without zanubrutinib 160 mg b.i.d.

SMILES: C[C@H]1O[C@@H](O[C@H]2[C@@H](O)C[C@H](O[C@H]3[C@@H](O)C[C@H](O[C@H]4CC[C@@]5(C)[C@H](CC[C@@H]6[C@@H]5C[C@@H](O)[C@]5(C)[C@@H](C7=CC(=O)OC7)CC[C@]65O)C4)O[C@@H]3C)O[C@@H]2C)C[C@H](O)[C@@H]1O [Digoxin, digoxin]
- AUC ([1]; male, human, plasma, oral, 0.25 mg, AUC0‐t, probe drugs only): 6.54 ng·h/mL
- AUC [1, 29]: 7.28 ng·h/mL
- Cmax [1, 30]: 1.56 ng/mL
- Tmax ([1]; probe drugs only): 1.00 (0.500–2.00) h

SMILES: Cc1ncc2n1-c1ccc(Cl)cc1C(c1ccccc1F)=NC2 [Midazolam, midazolam]
- mean changes (decrease) to AUC0‐t, AUC0‐∞ and Cmax ([2]; co‐administration of zanubrutinib): less than 50%
- Ratio of GLSM, AUC0‐t [2, 31]: 52.52%
- Ratio of GLSM, AUC0‐∞ [2, 31]: 52.58%
- Ratio of GLSM, Cmax [2, 31]: 70.17%
- mean AUC ratio of midazolam with and without rifampin ([3]; 7 days of rifampin dosing): 0.12
- mean AUC ratio of midazolam with and without rifampin ([3]; 14 days of rifampin dosing): 0.11
- within‐subject variation in Cmax and AUC ([1]; in vivo): ≤ 17.6%
- AUC [1, 29]: 14.3 ng·h/mL
- AUC [1, 32]: 15 ng·h/mL
- AUC [1, 33]: 28.2 ng·h/mL
- Cmax [1, 30]: 7.12 ng/mL
- Cmax [1, 34]: 10.2 ng/mL
- half-life [1, 35]: 4.87 h
- Tmax [1, 36]: 0.500 (0.500–1.00) h

SMILES: COc1ccc2[nH]c([S+]([O-])Cc3ncc(C)c(OC)c3C)nc2c1 (stereo not drawn) [Omeprazole, omeprazole]
- mean AUC0‐t lower with zanubrutinib co‐administration ([4]; in vivo): approximately 36%
- mean Cmax lower with zanubrutinib co‐administration ([4]; in vivo): ~21%
- Ratio of GLSM, AUC0‐t [4, 37]: 63.52%
- Ratio of GLSM, Cmax [4, 37]: 79.5%
- within‐subject variation in AUC ([1]; in vivo): 15%
- within‐subject variation in Cmax ([1]; in vivo): 35%
- AUC [1, 29]: 282 ng·h/mL
- Cmax [1, 30]: 182 ng/mL
- Cmax [1, 34]: 229 ng/mL
- Tmax ([1]; probe drugs only): 2.00 (1.00–8.00) h

SMILES: CC(C)c1nc(N(C)S(C)(=O)=O)nc(-c2ccc(F)cc2)c1/C=C/[C@@H](O)C[C@@H](O)CC(=O)O [Rosuvastatin, rosuvastatin]
- Ratio of GLSM, AUC0‐t [5]: 89.45%
- Ratio of GLSM, AUC0‐∞ [5]: 89.29%
- Ratio of GLSM, Cmax [5]: 108%
- within‐subject variation in Cmax and AUC ([1]; in vivo): ≤ 27.5%
- AUC [1, 29]: 32.9 ng·h/mL
- AUC [1, 32]: 34.4 ng·h/mL
- AUC [1, 33]: 41 ng·h/mL
- Cmax [1, 30]: 3.75 ng/mL
- Cmax [1, 34]: 3.47 ng/mL
- half-life ([1]; male, human, plasma, oral, t1/2, probe drugs + zanubrutinib 160 mg b.i.d.): 11.2 h
- half-life [1, 35]: 12.9 h
- Tmax [1, 36]: 3.00 (1.50–4.05) h

SMILES: CC(=O)C[C@@H](c1ccccc1)c1c(O)c2ccccc2oc1=O [S‐warfarin]
- Cmax [1, 36]: 666 (22.2) ng/mL
- Tmax [1, 36]: 1.00 (0.500–2.00) h
- Cmax ([1]; probe drugs only): 698 (14.9) ng/mL
- Tmax ([1]; probe drugs only): 1.00 (0.500–4.00) h

SMILES: C=CC(=O)N1CCC([C@@H]2CCNc3c(C(N)=O)c(-c4ccc(Oc5ccccc5)cc4)nn32)CC1 [Zanubrutinib, zanubrutinib]
- inhibition of transporter [6]: neither a significant inhibitor
- increase in mRNA [8]: ≥ 2 fold
- Cmax ([10]; 20 mg): 233 ng/mL
- Tmax ([10]; 20 mg): 2 h
- half-life ([10]; 20 mg): 2.93 h
- AUC ([10]; 20 mg, AUC0‐t, with omeprazole 20 mg (Day 18), n = 17, geometric mean (CV%)): 1070 ng·h/mL
- AUC ([10]; 20 mg, AUC0‐τ, with omeprazole 20 mg (Day 18), τ = 12 h, n = 16, geometric mean (CV%)): 1080 ng·h/mL
- Cmax ([10]; 160 mg twice daily): 231 ng/mL
- half-life ([10]; 160 mg twice daily): 2.7 h
- AUC ([10]; 160 mg twice daily, AUC0‐τ, zanubrutinib only (Day 13), τ = 12 h, n = 16, geometric mean (CV%)): 1050 ng·h/mL
- AUC ([10]; 160 mg, AUC0‐t, zanubrutinib 160 mg b.i.d. only (Day 13), n = 17, geometric mean (CV%)): 1030 ng·h/mL
- inhibition of transporter [11]: nor a significant inhibitor
- inhibition of transporter [13]: nor a significant inhibitor
- mean apparent terminal elimination half‐life (t1/2) [14]: 2 to 4 h
- inhibition of transporter [15]: nor a significant inhibitor
- solubility [16]: pH‐dependent solubility
- inhibition of transporter [19]: nor a significant inhibitor
- increase in mRNA [20]: ≥ 2 fold
- increase in mRNA [21]: ≥ 2 fold
- tolerability ([22]; 160 mg b.i.d. alone or co‐administered with probe drugs): generally well tolerated
- incidence of TEAEs ([22]; probe drugs plus zanubrutinib): 11.8%
- incidence of TEAEs ([22]; zanubrutinib only): 11.8%
- increase in mRNA [23]: ≥ 2 fold
- R3 value for induction [24]: 0.55
- inhibition of transporter [25]: nor a significant inhibitor
- inhibition of transporter [26]: nor a significant inhibitor

SMILES: COc1ccc(-n2nc(C(N)=O)c3c2C(=O)N(c2ccc(N4CCCCC4=O)cc2)CC3)cc1 [apixaban]
- fraction metabolized by CYP3A4/5 [27]: 15%

SMILES: O=C(NC[C@H]1CN(c2ccc(N3CCOCC3=O)cc2)C(=O)O1)c1ccc(Cl)s1 [rivaroxaban]
- decrease in mean AUC [28]: ~50%
- fraction metabolized by CYP3A4/5 [27]: ~ 18%
